# Patent US6656906B1, “Hybrid polypeptides with enhanced pharmacokinetic properties” (Trimeris, Inc., priority 1998, dated 2003)
# Read-outs that look alike come from different tables or passages of the source. No end group written: not given here.
# Key:
# FIG.5 = conditions: for half-life: CD, rat, plasma, iv, read-out: T1/2β (converted)
# Excerpt: Table printed on a drawing sheet, FIG.5
# The patent's description of the figure: FIG. 5.
# First reader's note: The table is printed under a plasma concentration-time plot of the same two peptides, which is not copied.
# RSV = experiment: Respiratory syncytial virus plaque reduction assay (Hep2 cells); type: cell-based
# Method: All necessary dilutions of peptides were performed in clean, sterile 96-well TC plate. A total of eleven dilutions for each peptide and one control well containing no peptide were assembled. The final concentration range of peptide started at 50 μg/ml or 100 μg/ml, with a total of eleven two-fold dilutions. The RSV was prepared at a concentration of 100PFU/well in 100 μl 3% EMEM, as determined by a known titer of RSV. The virus is then added to all of the wells.
# The media was removed from one sub-confluent 96-well plate of Hep2 cells. The material from the dilution plate was transferred onto the cell plates starting with row 1 and then transferring row 12, row 11, etc. until all rows were transferred. Plates were placed back into the incubator for 48 hours.
# The cells were checked to ensure that syncytia were present in the control wells. Media was removed and approximately 50 μls of 0.25% Crystal Violet in methanol was added to each well. The wells were rinsed immediately in water to remove excess stain and allowed to dry. Using a dissecting microscope, the number of syncytia in each well was counted.
# [1] = Rat pharmacokinetic studies, IV, fluorescence HPLC of plasma; type: in vivo, CD rats; conditions: for half-life relative to core peptide T1476 / half-life relative to core peptide T786: CD rats
# Method: 250-300 g male CD rats, double jugular catheter, obtained from Charles River Laboratories were used. Peptides were injected in one jugular catheter in a volume of 200 μl of peptide solution (approximately 3.75 mg/ml), dosing solution concentration was determined using the Edelhoch method, (Edelhoch, 1967, Biochemistry 6:1948-1954) method and adjusted based on animal weight such that each animal received a dose of 2.5 mg/kg). Approximately 250-300 μl of blood was removed at predetermined time intervals (0, 15, 30 min and 1, 2, 4, 6, and 8 hours) and added to EDTA capiject tubes. Plasma was removed from pelleted cells upon centrifugation and either frozen or immediately processed for fluorescence HPLC analysis.
# 100 μl of sample plasma was added to 900 μl of precipitation buffer (acetonitrile, 1.0% TFA, detergent) resulting in precipitation of the majority of plasma proteins. Following centrifugation at 10,000 rpm for 10 min, 400 μl of the supernatant was removed and added to 600 μl of HPLC grade water. Serial dilutions were performed as dictated by concentration of peptide present in each sample in dilution buffer comprised of 40% precipitation buffer and 60% HPLC water. In addition to sample dilutions, serial dilutions of dosing solution were performed in buffer as well as in plasma and used to generate a standard curve relating peak area to known concentration of peptide. This curve was then used to calculate concentration of peptide in plasma taking into account all dilutions performed and quantity injected onto column.
# [2] = molecular target: M41Δ178 (a truncated gp41 ectodomain fusion protein lacking the T20 amino acid sequence)
# HIV-1 [3] = system: HIV-1
# HIV-1 [4] = experiment: Human PBMC infectivity/neutralization assay; type: cell-based
# Method: The prototypic assay used cell lines where the primary isolate assay utilizes PBMC, obtained through Interstate Blood Bank, activated for 2-3 days with a combination of OKT3 (0.5 μg/ml) and CD28 antibodies (0.1 μg/ml). The target cells were banded on lymphocyte separation medium (LSM), washed, and frozen. Cells were thawed as required and activated as indicated above a minimum of 2-3 days prior to assay. In this 96-well format assay, cells were at a concentration of 2×10^6/ml in 5% IL-2 medium and a final volume of 100 μl. Peptide stock solutions were made in DPBS (1 mg/ml). Peptide dilutions were performed in 20% FBS RPM1 1640/5% IL-2 complete medium.
# HIV-1 [5] = system: HIV-1; remark: listed apart in the source
# HIV-2 NIHZ = experiment: virus mediated cell-cell fusion assay (chronically infected CEM cells mixed with uninfected Molt-4 cells); type: cell-based
# HIV-1 9320 = experiment: In vivo HuPBMC-SCID mouse model of HIV-1 9320 infection; set-up: species or system SCID mice; conditions: 67 mg/kg total daily dose, IP, bid, 8 days
# Method: Female SCID mice (5-7 weeks old) received 5-10×10^7 adult human PBMC injected intraperitoneally. Two weeks after reconstitution, mice were infected IP on day 0 with 10^3 TCID50 HIV-1 9320 (AZT-sensitive isolate A018). Treatment with peptides was IP, bid, beginning day −1 and continuing through day 6. The extent of infection in blood cells, splenocytes, lymph nodes, and peritoneal cells was assayed by quantitative co-culture with human PBMC blasts weekly for three consecutive weeks following animal exsanguinations and tissue harvest (day 7, approximately 12-18 hours following the last drug treatment). Co-culture supernatants were evaluated for HIV-1 p24 antigen production as a measure of virus infection (Immunotek Coulter kits and protocol).
# Two weeks after reconstitution with HuPBMCs, mice were infected IP on day 0 with 10^3 TCID50 HIV-1 9320 passed in PBMCs (AZT-sensitive isolate A018). […] The extent of infection in blood cells, splenocytes, lymph nodes, and peritoneal cells was assayed by quantitative co-culture with human PBMC blasts weekly for three consecutive weeks following animal exsanguinations and tissue harvest (day 7, approx. 12 to 18 hours following last drug treatment). Co-culture supernatants were evaluated for HIV-1 p24 antigen production as a measure of virus infection.
# SIV isolate B670 = experiment: Magi-CCR-5 infectivity assay; type: cell-based
# [6] = molecular target: M41Δ178 (a truncated gp41 ectodomain fusion protein lacking the T20 amino acid sequence); remark: listed apart in the source
molecule,measurement,setting,value
CC[C@H](C)[C@H](NC(=O)[C@H](CCC(N)=O)NC(=O)[C@H](C)NC(=O)[C@H](CCC(N)=O)NC(=O)[C@H](CCC(=O)O)NC(=O)[C@H](CC(C)C)NC(=O)[C@H](CC(C)C)NC(=O)[C@H](C)NC(=O)[C@@H](NC(=O)[C@@H](NC(=O)[C@H](CCCCN)NC(=O)[C@H](CCC(N)=O)NC(=O)[C@H](CCC(=O)O)NC(=O)[C@H](Cc1c[nH]c2ccccc12)NC(=O)[C@H](CCC(=O)O)NC(=O)[C@H](CCC(N)=O)NC(=O)[C@H](Cc1c[nH]c2ccccc12)NC(C)=O)[C@@H](C)CC)[C@@H](C)O)C(=O)N[C@@H](CCC(N)=O)C(=O)N[C@@H](CCC(N)=O)C(=O)N[C@@H](CCC(=O)O)C(=O)N[C@@H](CCCCN)C(=O)N[C@@H](CC(N)=O)C(=O)N[C@@H](CCC(=O)O)C(=O)N[C@@H](Cc1ccc(O)cc1)C(=O)N[C@@H](CCC(=O)O)C(=O)N[C@@H](CC(C)C)C(=O)N[C@@H](CCC(N)=O)C(=O)N[C@@H](CCCCN)C(=O)N[C@@H](CC(C)C)C(=O)N[C@@H](CC(=O)O)C(=O)N[C@@H](CCCCN)C(=O)N[C@@H](Cc1c[nH]c2ccccc12)C(=O)N[C@@H](C)C(=O)N[C@@H](CO)C(=O)N[C@@H](CC(C)C)C(=O)N[C@@H](Cc1c[nH]c2ccccc12)C(=O)N[C@@H](CCC(=O)O)C(=O)N[C@@H](Cc1c[nH]c2ccccc12)C(=O)N[C@@H](Cc1ccccc1)C(N)=O [T1249A1],AUC[0-8],FIG.5,71.43 µg/h/mL
same,half-life,FIG.5,4.71 h
"Ac-VYPSDEYDASISQVNEEINQALAYIRKADELLENV-NH2 [T786, RSV core peptide]",ability to inhibit RSV infection (plaque formation of HEp2 cells),RSV,able to inhibit RSV infection
"Ac-WQAWDEYDASISDVNEKINQALAYIREADELWEWF-NH2 [T1303, RSV hybrid polypeptide]",ability to inhibit RSV infection (plaque formation of HEp2 cells),RSV,inhibit RSV infection
same,half-life relative to core peptide T1476,[1],greatly enhanced half-life
Ac-WQAWDEYDASISQVNEKINQALAYIREADELWAWF-NH2 [T1302],ability to inhibit RSV infection (plaque formation of HEp2 cells),RSV,inhibit RSV infection
same,half-life relative to core peptide T786,[1],greatly enhanced half-life
same,half-life relative to core peptide T1476,[1],greatly enhanced half-life
"Ac-WQEWDEYDASISQVNEKINQALAYIREADELWAWF-NH2 [T1301, Ac-WQEWDEYDASISQVNEKINOALAYIREADELWA WF-NH2]",ability to inhibit RSV infection (plaque formation of HEp2 cells),RSV,inhibit RSV infection
same,half-life relative to core peptide T786,[1],greatly enhanced half-life
same,half-life relative to core peptide T1476,[1],greatly enhanced half-life
Ac-WQEWEQKIQHWSYGLRPGWASLWEWF-NH2 [T1324],half-life compared to the T1323 core peptide,[1]; CD male rats,significantly increased half-life
T20 (peptide),Kd,[2],1 to 2 nM
WMEWDREINKYTSLIHSLIEESQNQQEKNEQELL [DP397],inhibition of HIV-1 infection compared to T1249,"HIV-1 [3]; DH012-649 strain, at higher concentrations",increased inhibition of HIV-1 infection
same,inhibition of HIV-1 infection compared to T1249,HIV-1 [3]; RF-649 strain,increased inhibition of HIV-1 infection
same,inhibition of HIV-1 infection compared to T649,"HIV-1 [3]; T649 resistant strains RF-649, DH012-649, 3′ETVQQQ, SIM-649",markedly increased inhibition of HIV-1 infection
enfuvirtide [listing 1 of 2 here],half-life,FIG.5,1.6 h
enfuvirtide [listing 2 of 2 here],EC-50,HIV-1 [3]; HIV-1 9320,11
same,Vn/Vo = 0.1,HIV-1 [3]; HIV-1 9320,50
same,EC-50,"HIV-1 [3]; HIV-1 301714 (subtype B, NSI)",1065
same,Vn/Vo = 0.1,"HIV-1 [3]; HIV-1 301714 (subtype B, NSI)",4000
same,EC-50,HIV-1 [3]; HIV-1 G691-2 (AZT-R),13
same,Vn/Vo = 0.1,HIV-1 [3]; HIV-1 G691-2 (AZT-R),200
same,EC-50,HIV-1 [3]; HIV-1 IIIB,42
same,Vn/Vo = 0.1,HIV-1 [3]; HIV-1 IIIB,80
same,EC-50,HIV-1 [3]; HIV-1 pNL4-3,166
same,Vn/Vo = 0.1,HIV-1 [3]; HIV-1 pNL4-3,210
same,EC-50,HIV-1 [3]; HIV-1 pNL4-3 SM (T20-R),90
same,Vn/Vo = 0.1,HIV-1 [3]; HIV-1 pNL4-3 SM (T20-R),900
same,EC-50,HIV-1 [3]; HIV-1 pNL4-3 SM (T20-R) Duke,410
same,Vn/Vo = 0.1,HIV-1 [3]; HIV-1 pNL4-3 SM (T20-R) Duke,2600
same,EC-50,HIV-1 [3]; HIV-1 pNL4-3 STM (T20/T649-R),>50000
same,Vn/Vo = 0.1,HIV-1 [3]; HIV-1 pNL4-3 STM (T20/T649-R),>50000
same,Vn/Vo = 0.1,HIV-1 [4]; HIV-1 9320,6000 ng/mL
same,Vn/Vo = 0.1,"HIV-1 [4]; HIV-1 301593 (subtype B, SI)",3500 ng/mL
same,Vn/Vo = 0.1,"HIV-1 [4]; HIV-1 301714 (subtype B, NSI)",8000 ng/mL
same,Vn/Vo = 0.1,"HIV-1 [4]; HIV-1 302056 (subtype B, NSI)",800 ng/mL
same,Vn/Vo = 0.1,HIV-1 [4]; HIV-1 302077 (subtype A),3300 ng/mL
same,Vn/Vo = 0.1,HIV-1 [4]; HIV-1 302143 (SI),1600 ng/mL
same,Vn/Vo = 0.1,HIV-1 [4]; HIV-1 G691-2 (AZT-R),1300 ng/mL
same,Vn/Vo = 0.1,"HIV-1 [4]; HIV-1 IIIB, dose required to reduce virus titer by one log",250 ng/mL
same,Vn/Vo = 0.1,HIV-1 [4]; HIV-1 pNL4-3,3500 ng/mL
same,Vn/Vo = 0.1,HIV-1 [4]; HIV-1 pNL4-3 SM (T20-R),>10000 ng/mL
same,fusion inhibition,HIV-1 [5]; HIV-1 9320,118.4 ng/mL
same,fusion inhibition,HIV-1 [5]; HIV-1 G691-2 (AZT-R),406.0 ng/mL
same,fusion inhibition,HIV-1 [5]; HIV-1 G762-3 (Pre-AZT),340.1 ng/mL
same,fusion inhibition,HIV-1 [5]; HIV-1 IIIB,2.5 ng/mL
same,fusion inhibition,HIV-1 [5]; HIV-1 MN,20.0 ng/mL
same,fusion inhibition,HIV-1 [5]; HIV-1 RF,6.1 ng/mL
same,fusion inhibition,HIV-1 [5]; HIV-1 pNL4-3 SM (T20 Resistant),405.3 ng/mL
same,fusion inhibition,HIV-2 NIHZ,3610.0 ng/mL
same,infectious virus in blood or lymph tissues,HIV-1 9320,not detectable
same,virus in peritoneal washes and spleen preparation,HIV-1 9320,detected
same,EC-50,SIV isolate B670,2313
same,Vn/Vo = 0.1,SIV isolate B670,>10000
"WQEWEQKITALLEQAQIQQEKNEYELQKLDKWASLWEWF (not fully specified (N-terminus, C-terminus)) [T1249 (Ac-[…]-NH2)]",Kd,[6],1 to 2 nM
